Data reported in patent US20210269434A1, “TRICYCLIC COMPOUNDS AS INHIBITORS OF KRAS” (Incyte Corporation, priority 2020, published 2021).
pIC50: −log10 of the molar value.

Experiments:
[1] = target: KRAS G12C (Homo sapiens, UniProt P01116, G12C); assay: GDP-GTP exchange assay (KRAS_G12C exchange); format: biochemical; conditions: bodipy-GDP loaded KRAS G12C 2.5 nM, SOS1 150 nM, GppNHp; 2 hours pre-incubation, 2 hours reaction; read-out: G12C_exchange
How it was run: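 Fluorescence exchange of bodipy-GDP for GppNHp, SOS1-driven, read at 485/520 nm; IC50 from four-parameter variable-slope fit. Both mutants used 2.5 nM final labelled protein and a 2 h compound pre-incubation. G12C reaction had 500 uM GppNHp and 150 nM SOS1 for 2 h; G12D ran 4 h.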

[2] = tested on: MIA PaCa-2 (KRAS G12C) cells; assay: Cellular pERK HTRF assay (KRAS_G12C pERK); format: cell-based, human; conditions: Homo sapiens, MIA PaCa-2, 4 hours incubation, read-out: G12C_pERK
How it was run: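 Phospho-ERK1/2 HTRF readout (665 and 620 nm) in lysed MIA PaCa-2 cells, antibodies incubated overnight at room temperature. Cells seeded the day before and treated with G12C compounds for 4 h at 37 °C; IC50 fitted to percent inhibition against log inhibitor concentration.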

Sequence of KRAS G12C (P01116 1-188 isoform P01116-2 G12C): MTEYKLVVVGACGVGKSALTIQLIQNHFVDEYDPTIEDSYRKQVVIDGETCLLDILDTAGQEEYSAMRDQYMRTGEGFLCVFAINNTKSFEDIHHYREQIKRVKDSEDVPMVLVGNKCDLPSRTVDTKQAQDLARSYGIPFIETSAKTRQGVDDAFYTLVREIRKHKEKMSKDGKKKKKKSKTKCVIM

Structure (SMILES)	pIC50 [1]	pIC50 [2]
C=CC(=O)N1CC[C@H](n2nnc3c(OC[C@@H]4CCCN4C)nc4c(Cl)c(-c5ccc(F)c6cccnc56)c(Cl)cc4c32)C[C@H]1CC#N (single isomer, unassigned) [Example 276a]	≥ 7.00	≥ 7.00
C=CC(=O)N1CCC(n2cnc3c(N4CC(N(C)C)C4)nc4c(F)c(-c5cc(O)cc6ccccc56)c(Cl)cc4c32)CC1 [Example 9, 1-(4-(8-chloro-4-(3-(dimethylamino)azetidin-1-yl)-6-fluoro-7-(3-hydroxy-naphthalen-1-yl)-1H-imidazo[4,5-c]quinolin-1-yl)piperidin-1-yl)prop-2-en-1-one]	≥ 7.00	6.00 to 7.00
C=CC(=O)N1CCC(n2c(=O)[nH]c3c(OC[C@@H]4CCCN4C)nc4c(F)c(-c5cc(O)cc6ccccc56)c(Cl)cc4c32)CC1 [Example 10, 1-(1-Acryloylpiperidin-4-yl)-8-chloro-6-fluoro-7-(3-hydroxynaphthalen-1-yl)-4-(((S)-1-methylpyrrolidin-2-yl)methoxy)-1,3-dihydro-2H-imidazo[4,5-c]quinolin-2-one]	≥ 7.00	6.00 to 7.00
C=CC(=O)N1CCC(n2cnc3c(-c4cc(O)cc5ccccc45)nc4c(F)c(-c5cc(O)cc6ccccc56)c(Cl)cc4c32)CC1 [Example 11, 1-(4-(8-chloro-6-fluoro-4,7-bis(3-hydroxynaphthalen-1-yl)-1H-imidazo[4,5-c]quinolin-1-yl)piperidin-1-yl)prop-2-en-1-one]	≥ 7.00	6.00 to 7.00
C=CC(=O)N1CCC(n2cnc3c(-c4c(O)cccc4F)nc4c(F)c(-c5c(O)cccc5F)c(Cl)cc4c32)CC1 [Example 12, 1-(4-(8-chloro-6-fluoro-4,7-bis(2-fluoro-6-hydroxyphenyl)-1H-imidazo[4,5-c]-quinolin-1-yl)piperidin-1-yl)prop-2-en-1-one]	6.00 to 7.00	5.30 to 6.00
C=CC(=O)N1CCC(n2cnc3cnc4c(F)c(-c5c(O)cccc5F)c(Cl)cc4c32)CC1 [Example 13, 1-(4-(8-Chloro-6-fluoro-7-(2-fluoro-6-hydroxyphenyl)-1H-imidazo[4,5-c]-quinolin-1-yl)piperidin-1-yl)prop-2-en-1-one]	6.00 to 7.00	5.30 to 6.00
C=CC(=O)N1CC[C@H](n2cnc3c(N4CC(N(C)C)C4)nc4c(F)c(-c5cccc(C)c5C)c(Cl)cc4c32)C[C@H]1CC#N [Example 16, 2-((2S,4S)-1-acryloyl-4-(8-chloro-4-(3-(dimethylamino)azetidin-1-yl)-7-(2,3-dimethylphenyl)-6-fluoro-1H-imidazo[4,5-c]quinolin-1-yl)piperidin-2-yl)acetonitrile]	≥ 7.00	≥ 7.00
C=CC(=O)N1CC[C@H](n2cnc3c(N4CC(N(C)C)C4)nc4c(F)c(-c5cccc(C#N)c5C)c(Cl)cc4c32)C[C@H]1CC#N [Example 17, 3-(1-((2S,4S)-1-acryloyl-2-(cyanomethyl)piperidin-4-yl)-8-chloro-4-(3-(dimethylamino)azetidin-1-yl)-6-fluoro-1H-imidazo[4,5-c]quinolin-7-yl)-2-methylbenzonitrile]	≥ 7.00	≥ 7.00
C=CC(=O)N1CC[C@H](n2cnc3c(N4CC(N(C)C)C4)nc4c(F)c(-c5cccc(F)c5C)c(Cl)cc4c32)C[C@H]1CC#N [Example 18, 2-((2S,4S)-1-acryloyl-4-(8-chloro-4-(3-(dimethylamino)azetidin-1-yl)-6-fluoro-7-(3-fluoro-2-methylphenyl)-1H-imidazo[4,5-c]quinolin-1-yl)piperidin-2-yl)acetonitrile]	≥ 7.00	≥ 7.00
C=CC(=O)N1CC[C@H](n2cnc3c(N4CC(N(C)C)C4)nc4c(F)c(-c5cccc(C)c5Cl)c(Cl)cc4c32)C[C@H]1CC#N [Example 19, 2-((2S,4S)-1-acryloyl-4-(8-chloro-7-(2-chloro-3-methylphenyl)-4-(3-(dimethylamino)azetidin-1-yl)-6-fluoro-1H-imidazo[4,5-c]quinolin-1-yl)piperidin-2-yl)acetonitrile]	≥ 7.00	≥ 7.00
C=CC(=O)N1CC[C@H](n2cnc3c(N4CC(N(C)C)C4)nc4c(F)c(-c5ccccc5C)c(Cl)cc4c32)C[C@H]1CC#N [Example 20, 2-((2S,4S)-1-acryloyl-4-(8-chloro-4-(3-(dimethylamino)azetidin-1-yl)-6-fluoro-7-(o-tolyl)-1H-imidazo[4,5-c]quinolin-1-yl)piperidin-2-yl)acetonitrile]	≥ 7.00	≥ 7.00
C=CC(=O)N1CC[C@H](n2cnc3c(N4CC(N(C)C)C4)nc4c(F)c(-c5cc(O)cc6ccccc56)c(Cl)cc4c32)C[C@H]1C(N)=O [Example 21, (2S,4S)-1-acryloyl-4-(8-chloro-4-(3-(dimethylamino)azetidin-1-yl)-6-fluoro-7-(3-hydroxynaphthalen-1-yl)-1H-imidazo[4,5-c]quinolin-1-yl)piperidine-2-carboxamide]	≥ 7.00	≥ 7.00
C=CC(=O)N1CC[C@H](n2cnc3c(N4CC(N(C)C)C4)nc4c(F)c(-c5cc(O)cc6ccccc56)c(Cl)cc4c32)C[C@H]1C#N [Example 22, (2S,4S)-1-acryloyl-4-(8-chloro-4-(3-(dimethylamino)azetidin-1-yl)-6-fluoro-7-(3-hydroxynaphthalen-1-yl)-1H-imidazo[4,5-c]quinolin-1-yl)piperidine-2-carbonitrile]	≥ 7.00	≥ 7.00

Continued, values first:

pIC50 [1]	pIC50 [2]	Structure (SMILES)
≥ 7.00	≥ 7.00	CC#CC(=O)N1CC[C@H](n2nnc3c(N4CC(N(C)C)C4)nc4c(Cl)c(-c5cccc6cccnc56)c(Cl)cc4c32)C[C@H]1CC#N (single isomer, unassigned) [Example 277a]
≥ 7.00	≥ 7.00	CC#CC(=O)N1CC[C@H](n2nnc3c(OC[C@@H]4CCCN4C)nc4c(Cl)c(-c5cccc6cccnc56)c(Cl)cc4c32)C[C@H]1CC#N (single isomer, unassigned) [Example 279a]
≥ 7.00	≥ 7.00	CC#CC(=O)N1CC[C@H](n2nnc3c(OC[C@@H]4CCCN4C)nc4c(Cl)c(-c5cc(F)cc6cccnc56)c(Cl)cc4c32)C[C@H]1CC#N (single isomer, unassigned) [Example 280a]
≥ 7.00	≥ 7.00	C=CC(=O)N1CC[C@H](n2nnc3c(N4CC(N(C)C)C4)nc4c(Cl)c(-c5cccc6cccnc56)c(Cl)cc4c32)C[C@H]1CC#N (single isomer, unassigned) [Example 283a]
≥ 7.00	≥ 7.00	C=CC(=O)N1CC[C@H](n2nnc3c(N4CC(N(C)C)C4)nc4c(Cl)c(-c5cc(F)cc6cccnc56)c(Cl)cc4c32)C[C@H]1CC#N (single isomer, unassigned) [Example 284a]
≥ 7.00	≥ 7.00	C=CC(=O)N1CC[C@H](n2nnc3c(OC[C@@H]4CCCN4C)nc4c(Cl)c(-c5cccc6cccnc56)c(Cl)cc4c32)C[C@H]1CC#N (single isomer, unassigned) [Example 288a]
≥ 7.00	≥ 7.00	C=CC(=O)N1CC[C@H](n2nnc3c(OC[C@@H]4CCCN4C)nc4c(Cl)c(-c5cc(F)cc6cccnc56)c(Cl)cc4c32)C[C@H]1CC#N (single isomer, unassigned) [Example 289a]
